Results on seven compounds are retold here after patent US12673017B2, “Ultra-mild, concentrated and self-preserving cleansing compositions for personal care” (GALAXY SURFACTANTS LTD, priority 2022, dated 2026).

In this data set the test system is blood capillaries of chorioallantoic membrane of hen's fertilized egg. The experiment in a line: HET-CAM test (hen's egg test on chorioallantoic membrane, Invittox protocol 47). Further details: species or system White Leghorn chicken. The settings on record: for Irritancy Score by HET-CAM: Table 2, individual surfactants. The source says:
The HET-CAM (Hen's egg test on chorioallantoic membrane, as per Invittox Protocol 47) method. The hen's egg test on Chorioallantoic Membrane (HET-CAM) is an alternative in-vitro method developed by Luepke et al. to substitute Draize test that was done on rabbits. (Luepke N. Hen's egg chorioallantoic membrane test for irritation potential. Food Chem Toxicol. 1985; 23(2):287-291). It is subsequently modified by […] et al. ([…] Test. The […]. Databank of in-vitro techniques. […] Subsequently, the methodology is successfully adopted to personal care by […] et al. ([…], Bracher M, Courtellemont P, de Silva O. The HET-CAM, a useful in vitro assay for assessing the eye irritation properties of cosmetic formulations and ingredients. Toxicol. […] The egg's shell is opened at the side of the air chamber, and the egg white membrane is removed while avoiding any damage to the fine blood vessels. […] Based on Irritation score the damaging potential is classified into four categories as described in the table 1 below. White Leghorn chicken eggs (up to 9 days of incubation) are candled to ensure that all are viable. Egg shell is marked using a rotating dentist-sawblade and the section of the shell is removed. The membrane is carefully moistened with 0.9% NaCl solution and the eggs are replaced in incubator until ready for assaying. […] Onset of haemorrhage (Bleedings), vascular lysis (Blood vessel disintegration), coagulation (protein denaturation intra and extra vascular) is monitored. The onset of the biological endpoints is recorded in number of seconds and the irritancy scores are calculated as per formula prescribed in the protocol document. The irritancy score is broadly divided into four different categories of damaging potential as described in Table 1.

`CCCCCCCCCCCCOS(=O)(=O)[O-].[Na+]` [Sodium lauryl sulphate]: the “Irritancy score (IS) by HET-CAM” value is given as “around 16”. Also, for the setting “1% test solution”, the “Irritancy Score by HET-CAM” value is reported as 16.7. For the same compound, under “Table 3b”, the “C, calculated coagulation part of IS” value is 5.0; the “H, calculated haemorrhage part of IS” value is 4.5; the “IS (irritation score)” value is listed as 15.1; the “L, calculated lysis part of IS” value is 5.6. Where the note is “Table 3b, 1% test solution”, the “C, time for appearance of coagulation” value amounted to 134 s; the “H, time for appearance of haemorrhage” value came to 31 s; the “L, time for appearance of lysis” value worked out at 63 s. Besides, where the note is “Table 6a”, the “C, time for appearance of coagulation” value came out at 134 s; the “Calculation C” value is reported as 5.0; the “Calculation H” value is 4.5; the “Calculation L” value is 5.6. For the same compound, for the setting “Table 6a”, the “H, time for appearance of haemorrhage” value amounted to 31 s; the “IS (irritation score)” value is 15.1; the “L, time for appearance of lysis” value came to 63 s. Further, for the setting “Table 12”, the “C, calculated coagulation part of score” value was 5.0; the “C, time for appearance of coagulation” value was 134 s; the “H, calculated haemorrhage part of score” value is on record as 4.5; the “H, time for appearance of haemorrhage” value was 31 s. Moreover, under “Table 12”, the Irritancy score came to 15.1; the “L, calculated lysis part of score” value is 5.6; the “L, time for appearance of lysis” value was 63 s.

For Caprylyl/capryl glucoside, where the note is “1% test solution”, the “Irritancy Score by HET-CAM” value is 8.

Consider Cocamido propyl sulphobetaine, for which the “Irritancy Score by HET-CAM” value (1% test solution) turned out to be 10.

For the compound “Cocamidopropyl PG dimonium chloride phosphate”, the “Irritancy Score by HET-CAM” value (1% test solution) is given as 7.5.

Cocomido propyl betaine: the “Irritancy Score by HET-CAM” value (1% test solution) is on record as 10.8.

For the compound “Lauramido propyl PG dimonium chloride phosphate”, under “1% test solution”, the “Irritancy Score by HET-CAM” value is 8.0.

Turning to Lauryl glucoside, the “Irritancy Score by HET-CAM” value (1% test solution) worked out at 6.5.
